According to article PMC8586496 (International Journal for Parasitology: Drugs and Drug …, 2021):
“And” between values parts separate entries of the source, which are not always exact repeats. Equal entries are not always repeated.

Tests used:
Tca-Pgp-11.1 = biological target: T1, Tca-Pgp-11.1 (Toxocara canis, UniProt A0A891XKB7); experiment: H33342 efflux inhibition assay; assay type: cell-based
T1 sequence (A0A891XKB7 1-1282): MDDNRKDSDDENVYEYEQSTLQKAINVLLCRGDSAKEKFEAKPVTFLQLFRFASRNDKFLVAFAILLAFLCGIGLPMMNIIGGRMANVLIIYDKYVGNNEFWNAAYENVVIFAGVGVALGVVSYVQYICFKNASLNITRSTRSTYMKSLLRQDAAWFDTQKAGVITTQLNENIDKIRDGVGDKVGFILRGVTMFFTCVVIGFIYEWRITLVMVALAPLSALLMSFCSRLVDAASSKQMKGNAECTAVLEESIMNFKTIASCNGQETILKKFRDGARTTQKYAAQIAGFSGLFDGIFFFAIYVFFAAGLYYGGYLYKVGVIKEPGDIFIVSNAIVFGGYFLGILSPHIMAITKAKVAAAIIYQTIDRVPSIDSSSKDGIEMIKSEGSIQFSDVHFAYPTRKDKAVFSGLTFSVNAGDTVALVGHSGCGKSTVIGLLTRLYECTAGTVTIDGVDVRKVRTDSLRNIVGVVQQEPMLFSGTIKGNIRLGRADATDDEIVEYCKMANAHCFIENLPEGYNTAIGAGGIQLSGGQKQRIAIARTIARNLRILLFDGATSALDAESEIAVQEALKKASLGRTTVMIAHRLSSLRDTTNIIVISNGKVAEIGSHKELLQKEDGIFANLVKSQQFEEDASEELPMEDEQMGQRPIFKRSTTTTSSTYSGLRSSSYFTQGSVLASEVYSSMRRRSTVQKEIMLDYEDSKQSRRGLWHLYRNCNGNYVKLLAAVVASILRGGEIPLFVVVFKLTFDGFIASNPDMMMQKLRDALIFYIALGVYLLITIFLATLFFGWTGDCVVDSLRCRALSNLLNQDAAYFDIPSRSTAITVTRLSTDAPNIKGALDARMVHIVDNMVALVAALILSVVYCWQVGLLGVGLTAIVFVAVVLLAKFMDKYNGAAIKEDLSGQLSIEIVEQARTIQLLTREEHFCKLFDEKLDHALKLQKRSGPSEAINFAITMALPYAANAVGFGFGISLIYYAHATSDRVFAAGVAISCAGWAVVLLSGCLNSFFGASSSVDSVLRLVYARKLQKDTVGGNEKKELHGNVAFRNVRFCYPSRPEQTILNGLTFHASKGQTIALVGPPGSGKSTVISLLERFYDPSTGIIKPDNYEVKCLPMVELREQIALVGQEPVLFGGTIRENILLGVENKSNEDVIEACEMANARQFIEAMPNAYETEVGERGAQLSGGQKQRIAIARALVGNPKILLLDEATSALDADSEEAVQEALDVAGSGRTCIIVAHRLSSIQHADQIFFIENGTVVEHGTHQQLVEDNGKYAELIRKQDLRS

[1] = tested on: non-transfected LLC-PK1 cells; assay type: cell-based, pig; conditions: possibly P-gp-independent mechanism

| Structure (SMILES) | IC50 (Tca-Pgp-11.1) | Effect on release of H33342 from non-transfected cells [1] |
| --- | --- | --- |
| CO[C@H]1C[C@H](O[C@@H]2/C(C)=C/C[C@@H]3C[C@@H](C[C@]4(CC[C@H](C)[C@@H](C5CCCCC5)O4)O3)OC(=O)[C@@H]3C=C(C)/C(=N/O)[C@H]4OC/C(=C\C=C\[C@@H]2C)[C@]43O)O[C@@H](C)[C@@H]1O [Selamectin, selamectin] | 1020 µM | – |
| COc1cc2c(cc1OC)CN(CCc1ccc(NC(=O)c3cc(OC)c(OC)cc3NC(=O)c3cnc4ccccc4c3)cc1)CC2 [Tariquidar, tariquidar] | 68 µM and 68.5 µM | – |
| C/C=C/C[C@@H](C)C(=O)[C@H]1C(=O)N[C@@H](C(C)C)C(=O)N(C)CC(=O)N(C)[C@@H](CC(C)C)C(=O)N[C@@H](C(C)C)C(=O)N(C)[C@@H](CC(C)C)C(=O)N[C@@H](C)C(=O)N[C@H](C)C(=O)N(C)[C@@H](CC(C)C)C(=O)N(C)[C@@H](CC(C)C)C(=O)N(C)[C@@H](C(C)C)C(=O)N1C [Valspodar, valspodar] | 3.01 µM | – |
| COC(=O)[C@H]1[C@H]2C[C@@H]3c4[nH]c5cc(OC)ccc5c4CCN3C[C@H]2C[C@@H](OC(=O)c2cc(OC)c(OC)c(OC)c2)[C@@H]1OC [reserpine] | – | enhanced release of H33342 from non-transfected cells |
| C=CC[C@@H]1/C=C(\C)C[C@H](C)C[C@H](OC)[C@H]2O[C@@](O)(C(=O)C(=O)N3CCCC[C@H]3C(=O)O[C@H](/C(C)=C/[C@@H]3CC[C@@H](O)[C@H](OC)C3)[C@H](C)[C@@H](O)CC1=O)[C@H](C)C[C@@H]2OC [tacrolimus] | – | enhanced release of H33342 from non-transfected cells |
